Source: the supplement of paper PMC11699113
Structures can show the parent of a compound that is named as a salt.

System: ED cells (E. derm NBM-6, ATCC CCL-57)
Test: cell viability (ATP, CellTiter-Glo) relative to untreated control (fraction of control); higher = less cytotoxic

Nc1nc(=O)n([C@@H]2CS[C@H](CO)O2)cc1F [emtricitabine]
cell viability
Conditions	0.5 µM	2 µM	5 µM	10 µM	25 µM	50 µM	80 µM	100 µM	200 µM	300 µM
incubation time: 1h	0.999	0.996	1.01	1.01	0.998	1	1.01	1.01	0.998	1.01
incubation time: 24h	0.998	1.02	1.02	1.04	1.04	1.03	1.03	1.03	1.01	1
incubation time: 72h	1.03	1.05	1.05	1.05	1.05	1.04	1.04	1.03	0.999	0.999
incubation time: 144h	1.03	1.05	1.06	1.06	1.06	1.05	1.04	1.05	1.05	1.02

Cc1cn([C@H]2C[C@H](N=[N+]=[N-])[C@@H](CO)O2)c(=O)[nH]c1=O [zidovudine]
cell viability
Conditions	0.5 µM	2 µM	5 µM	10 µM	25 µM	50 µM	80 µM	100 µM	200 µM	300 µM
incubation time: 1h	1.05	1.06	1.05	1.04	1.02	1.04	1.04	1.04	1.03	1.02
incubation time: 24h	1.06	1.05	1.02	1.02	1.02	1.05	0.981	0.98	1.04	0.958
incubation time: 72h	1.07	1.07	1.09	1.09	1.08	1.09	1.07	1.08	1.09	1.08
incubation time: 144h	1.01	1.03	1.03	1.03	1.04	1.03	1.03	1.04	1.06	1.06

CCC[C@@]1(CCc2ccccc2)CC(O)=C([C@H](CC)c2cccc(NS(=O)(=O)c3ccc(C(F)(F)F)cn3)c2)C(=O)O1 [tipranavir]
cell viability
Conditions	0.25 µM	0.5 µM	2 µM	5 µM	10 µM	20 µM	50 µM	100 µM	140 µM	166 µM
incubation time: 1h	1.01	1	0.997	1	1	0.982	0.958	0.789	0.636	0.622
incubation time: 24h	1.01	1	0.993	1	1.03	0.966	0.885	0.718	0.505	0.498
incubation time: 72h	1.04	1.04	1.04	1.02	1.01	0.99	0.822	0.557	0.294	0.212
incubation time: 144h	1	1.01	1.01	1	0.996	0.973	0.772	0.405	0.109	0.0669

COC(=O)N[C@H](C(=O)N[C@@H](Cc1ccccc1)[C@@H](O)CN(Cc1ccc(-c2ccccn2)cc1)NC(=O)[C@@H](NC(=O)OC)C(C)(C)C)C(C)(C)C [atazanavir]
cell viability
Conditions	0.125 µM	0.25 µM	0.5 µM	2 µM	10 µM	20 µM	50 µM	80 µM	100 µM	124 µM
incubation time: 1h	1.05	1.05	1.05	1.06	1.06	1.04	1.03	1.01	1.02	1.02
incubation time: 24h	1.07	1.08	1.07	1.07	1.06	1.06	1.03	0.979	0.941	0.798
incubation time: 72h	1.09	1.12	1.1	1.1	1.13	1.12	1.09	0.802	0.416	0.0698
incubation time: 144h	1.02	1.05	1.03	1.03	1.07	1.07	1.04	0.554	0.0524	0.00492

CC(C)CN(C[C@@H](OP(=O)(O)O)[C@H](Cc1ccccc1)NC(=O)O[C@H]1CCOC1)S(=O)(=O)c1ccc(N)cc1 [fosamprenavir]
cell viability
Conditions	0.03 µM	0.06 µM	0.125 µM	0.25 µM	0.5 µM	2 µM	5 µM	10 µM	20 µM	32 µM
incubation time: 1h	1.1	1.13	1.11	1.11	1.11	1.1	1.1	1.11	1.1	1.08
incubation time: 24h	1.01	1.01	1.01	1	0.994	1	0.979	0.978	0.978	0.949
incubation time: 72h	1.08	1.08	1.08	1.08	1.08	1.08	1.04	1.03	1	0.953
incubation time: 144h	1.02	1.04	1.04	1.06	1.05	1.05	1.04	1.02	0.993	0.957

Nc1ccn([C@@H]2CS[C@H](CO)O2)c(=O)n1 [lamivudine]
cell viability
Conditions	0.5 µM	2 µM	5 µM	10 µM	20 µM	40 µM	50 µM	75 µM	100 µM	150 µM
incubation time: 1h	1.04	1.02	1.03	1.03	1.02	1.01	1.01	1.02	0.997	0.979
incubation time: 24h	1.02	1.03	1.03	1.03	1.03	1.03	1.02	1.03	1.03	1.04
incubation time: 72h	1.03	1.04	1.05	1.04	1.06	1.05	1.04	1.04	1.04	1.02
incubation time: 144h	1.03	1.03	1.04	1.04	1.04	1.04	1.03	1.04	1.03	1

CC(C)c1nc(CN(C)C(=O)N[C@H](C(=O)N[C@@H](Cc2ccccc2)C[C@H](O)[C@H](Cc2ccccc2)NC(=O)OCc2cncs2)C(C)C)cs1 [ritonavir]
cell viability
Conditions	0.5 µM	2 µM	5 µM	10 µM	25 µM	50 µM	80 µM	100 µM	200 µM	300 µM
incubation time: 1h	1.05	1.05	1.05	1.03	1	0.976	0.899	0.879	0.881	0.887
incubation time: 24h	1.03	0.991	0.964	0.922	0.886	0.834	0.426	0.372	0.363	0.363
incubation time: 72h	1.01	0.949	0.868	0.81	0.763	0.686	0.00794	0.00652	0.00418	0.00806
incubation time: 144h	1	0.966	0.901	0.854	0.788	0.703	0.0753	0.0037	0.00476	0.00437

CC(C)(C)NC(=O)[C@@H]1C[C@@H]2CCCC[C@@H]2CN1C[C@@H](O)[C@H](Cc1ccccc1)NC(=O)[C@H](CC(N)=O)NC(=O)c1ccc2ccccc2n1 [saquinavir]
cell viability
Conditions	0.25 µM	0.5 µM	2 µM	5 µM	10 µM	20 µM	25 µM	30 µM	50 µM	65 µM
incubation time: 1h	1.03	1.04	1.03	1.04	1.03	1	1.01	1.02	0.958	0.868
incubation time: 24h	0.995	1.01	1	0.992	0.955	0.896	0.872	0.868	0.75	0.583
incubation time: 72h	1.04	1.03	1.01	0.956	0.904	0.798	0.753	0.687	0.306	0.0705
incubation time: 144h	1.02	1.02	1	0.951	0.922	0.808	0.743	0.699	0.201	0.0214

O=C1Nc2ccc(Cl)cc2[C@@](C#CC2CC2)(C(F)(F)F)O1 [efavirenz]
cell viability
Conditions	0.5 µM	2 µM	5 µM	10 µM	20 µM	40 µM	50 µM	75 µM	100 µM	150 µM
incubation time: 1h	1.05	1.04	1.02	0.985	0.902	0.523	0.35	0.164	0.0891	0.0482
incubation time: 24h	0.985	0.989	1.01	0.999	0.979	0.618	0.194	0.00645	0.0077	0.00431
incubation time: 72h	1.04	1.04	1.04	1.03	1.01	0.907	0.659	0.0635	0.0176	0.00453
incubation time: 144h	1.02	1.02	1.02	1	0.969	0.862	0.574	0.128	0.113	0.00579

Cc1ccnc2c1NC(=O)c1cccnc1N2C1CC1 [nevirapine]
cell viability
Conditions	0.5 µM	2 µM	5 µM	10 µM	25 µM	50 µM	80 µM	100 µM	200 µM	300 µM
incubation time: 1h	1.05	1.04	1.05	1.05	1.05	1.04	1.05	1.04	1.05	1.04
incubation time: 24h	1.06	1.06	1.07	1.07	1.08	1.09	1.06	1.08	1.05	1.04
incubation time: 72h	1.04	1.05	1.07	1.07	1.06	1.06	1.03	1.02	0.958	0.924
incubation time: 144h	1	1.02	1.02	1.03	1.02	0.989	0.962	0.961	0.886	0.848

CC(C)OC(=O)OCOP(=O)(CO[C@H](C)Cn1cnc2c(N)ncnc21)OCOC(=O)OC(C)C [tenofovir disoproxil fumarate]
cell viability
Conditions	0.5 µM	2 µM	5 µM	10 µM	20 µM	40 µM	50 µM	75 µM	100 µM	150 µM
incubation time: 1h	1.01	1.01	1.02	1.02	1.01	0.999	1	1	0.999	0.988
incubation time: 24h	1.02	1.01	1	0.98	0.95	0.89	0.855	0.795	0.721	0.613
incubation time: 72h	1	0.992	0.947	0.898	0.836	0.75	0.708	0.643	0.643	0.545
incubation time: 144h	1.02	0.993	0.941	0.877	0.833	0.766	0.737	0.662	0.624	0.527

O=C(NCc1c(F)cc(F)cc1F)c1cn2c(c(O)c1=O)C(=O)N1[C@H]3CC[C@H](C3)O[C@@H]1C2 [bictegravir]
cell viability
Conditions	0.06 µM	0.125 µM	0.325 µM	2 µM	5 µM	10 µM	20 µM	30 µM	42 µM	concentration (µM): C04 (printed 10, out of sequence, likely typo)
incubation time: 1h	1	0.997	0.994	0.995	0.987	0.99	0.993	0.994	0.98	1
incubation time: 24h	1.01	0.998	1.01	1.01	1.02	1.01	1.03	1.01	1	1.01
incubation time: 72h	1.07	1.09	1.1	1.1	1.11	1.11	1.08	1.05	0.997	1.09
incubation time: 144h	1.07	1.06	1.07	1.06	1.06	1.05	1.01	0.972	0.952	1.07

Cc1cc(C#N)cc(C)c1Oc1nc(Nc2ccc(C#N)cc2)nc(N)c1Br [etravirine]
cell viability
Conditions	0.5 µM	2 µM	5 µM	10 µM	25 µM	50 µM	80 µM	100 µM	200 µM	300 µM
incubation time: 1h	1.03	1.02	0.959	0.693	0.424	0.372	0.346	0.329	0.328	0.322
incubation time: 24h	1.06	1.02	1.04	0.986	0.866	0.817	0.679	0.674	0.413	0.249
incubation time: 72h	1.01	0.978	0.953	0.894	0.829	0.796	0.75	0.723	0.541	0.412
incubation time: 144h	1	0.994	0.97	0.927	0.871	0.835	0.784	0.775	0.626	0.525

Nc1nc(NC2CC2)c2ncn([C@H]3C=C[C@@H](CO)C3)c2n1 [abacavir]
cell viability
Conditions	0.5 µM	2 µM	5 µM	10 µM	25 µM	50 µM	80 µM	100 µM	200 µM	300 µM
incubation time: 1h	1	0.999	1	1	1	0.999	0.994	0.99	0.983	0.982
incubation time: 24h	1.01	1.02	1.01	1.01	0.99	0.944	0.924	0.91	0.846	0.788
incubation time: 72h	1.02	1.03	0.999	0.978	0.925	0.846	0.785	0.745	0.604	0.506
incubation time: 144h	1.04	1.02	0.992	0.949	0.884	0.816	0.754	0.735	0.596	0.458
